In brackets after ≈: the same amount, converted by molar mass.
Key:
[1] = test system: Klebsiella pneumoniae 272; assay: Serial dilution test in the microtiter system, MIC against Klebsiella pneumoniae 272; type: cell-based; conditions: minimum inhibitory concentration, 37° C., 18 to 20 hours, read-out: MIC, Klebs. pneum. 272
Experimental: (§1) The tests were performed using the serial dilution test in the microtiter system. The effect of the test compounds on bacteriostasis was examined at the following concentrations: 80, 40, 20, 10, 5, 2.5, 1.25, 0.6, 0.3, 0.08 and 0.02 μgm/ml. The nutrient medium consisted of 10 gm of peptone, 8 gm of meat extract oxoid, 3 gm of sodium chloride, and 2 gm of sec. sodium phosphate diluted with distilled water to […] (pH 7.2-7.4). Only in the test against streptococci 1% of glucose was added. The age of the primary cultures was approximately 20 hours. The standardization of the bacteria suspension was effected using a photometer according to the method of Eppendorf (test tube .phi. 14 mm, filter 546 nm), using for comparison a barium sulfate suspension formed by the addition of 3.0 ml of 1% barium chloride solution to 97 ml of 1% sulfuric acid. After the standardization,Streptococcus aronson was further diluted to a concentration of 1:15, and the other bacteria to a concentration of 1:1500, using a sodium chloride solution.
(§2) 16 mgm of the particular test compound were put into a 10 ml measuring flask, and the flask was subsequently filled to the mark with solvent. The further dilution series was standardized with distilled water or the appropriate solvent.
(§3) The cavities of the microtiter plates were filled with 0.2 ml of nutrient medium. 0.01 ml of the appropriate test compound solution was then added, followed by inoculation with 0.01 ml of the standardized bacteria suspension. The bacteria were incubated at 37° C. for 18 to 20 hours. Control tests using only the solvent were carried out simultaneously.
(§4) The measurement was carried out macroscopically to determine the minimum inhibitory concentration (the lowest still bacteriostatically effective concentration).
(§5) The following test organisms were used:
(§6) Staphylococcus aureus SG 511, St. aureus E 88 (β-lactamase carrier), Escherichia coli ATCC 11 775, Pseudomonas aeruginosa Hamburgensis and Pseudomonas aeruginosa Walter, Serratia macrescens ATCC 13 880, Klebsiella pneumoniae ATCC 10 031 and 272, Proteus mirabilis Hamburgensis, Proteus rettgeri Eb. cloaceae ATCC 13047, and E. coli R+TEM (β-lactamase carrier).
(§7) The following tables show the determined minimum inhibitory concentrations (MIC) for a few representative compounds (E=Na) of the present invention, and two known cephalosporins for comparison: […]

St. aureus E 88 = assay: Serial dilution test in the microtiter system, MIC against S. aureus E 88 (β-lactamase carrier); type: cell-based; conditions: Staphylococcus aureus, E88, minimum inhibitory concentration, 37° C., 18 to 20 hours
Experimental: as §1, §2, §3, §4, §5, §6, §7

[2] = test system: Klebsiella pneumoniae ATCC 10 031; assay: Serial dilution test in the microtiter system, MIC against Klebsiella pneumoniae ATCC 10031; type: cell-based; conditions: minimum inhibitory concentration, 37° C., 18 to 20 hours, read-out: MIC, Klebs. pneum. ATCC 10031
Experimental: as §1, §2, §3, §4, §5, §6, §7

E. coli R+TEM = assay: Serial dilution test in the microtiter system, MIC against E. coli R+TEM (β-lactamase carrier); type: cell-based; conditions: Escherichia coli, read-out: MIC, E. coli R + TEM
Experimental: as §1, §2, §3, §4, §5, §6, §7

[3] = test system: Serratia macrescens ATCC 13 880; assay: Serial dilution test in the microtiter system, MIC against Serratia marcescens ATCC 13880; type: cell-based; conditions: read-out: MIC, Serr. marcesc. ATCC 13880
Experimental: as §1, §2, §3, §4, §5, §6, §7

[4] = test system: Pseudomonas aeruginosa Hamburgensis; assay: Serial dilution test in the microtiter system, MIC against Pseudomonas aeruginosa Hamburgensis; type: cell-based; conditions: minimum inhibitory concentration, 37° C., 18 to 20 hours, read-out: MIC, Pseud. aerug. Hbg.
Experimental: as §1, §2, §3, §4, §5, §6, §7

[5] = test system: Pseudomonas aeruginosa Walter; assay: Serial dilution test in the microtiter system, MIC against Pseudomonas aeruginosa Walter; type: cell-based; conditions: minimum inhibitory concentration, 37° C., 18 to 20 hours, read-out: MIC, Pseud. aerug. Walter
Experimental: as §1, §2, §3, §4, §5, §6, §7

[6] = test system: Escherichia coli ATCC 11 775; assay: Serial dilution test in the microtiter system, MIC against E. coli ATCC 11775; type: cell-based; conditions: minimum inhibitory concentration, 37° C., 18 to 20 hours
Experimental: as §1, §2, §3, §4, §5, §6, §7

Eb. cloaceae ATCC 13047 = assay: Serial dilution test in the microtiter system, MIC against Eb. cloaceae ATCC 13047; type: cell-based; conditions: minimum inhibitory concentration; 37° C., 18 to 20 hours
Experimental: as §1, §2, §3, §4, §5, §6, §7

[7] = test system: Staphylococcus aureus SG 511; assay: Serial dilution test in the microtiter system, MIC against S. aureus SG 511; type: cell-based; conditions: SG511, minimum inhibitory concentration, 37° C., 18 to 20 hours
Experimental: as §1, §2, §3, §4, §5, §6, §7

[8] = test system: Proteus mirabilis Hamburgensis; assay: Serial dilution test in the microtiter system, MIC against Proteus mirabilis Hamburgensis; type: cell-based; conditions: minimum inhibitory concentration, 37° C., 18 to 20 hours, read-out: MIC, Prot. Mir. Hbg.
Experimental: as §1, §2, §3, §4, §5, §6, §7

Proteus rettgeri = assay: Serial dilution test in the microtiter system, MIC against Proteus rettgeri; type: cell-based; conditions: Providencia rettgeri; minimum inhibitory concentration; 37° C., 18 to 20 hours; read-out: MIC, Prot. rettg.
Experimental: as §1, §2, §3, §4, §5, §6, §7

[9] = test system: Pseudomonas aeruginosa Walter; assay: In vivo test in mice against experimental Pseudomonas infection; parameters: species or system Female NMRI mice; conditions: Pseudomonas aeruginosa, sc, 168 h; subcutaneous; per dose; dose at which 50% of the animals survived; observation 7 days
Experimental: (§8) A series of the compounds according to the invention was tested in vivo in mice against experimental infections. As pathogenic bacteria were used E. coli ATCC 11775 and Pseudomonas aeruginosa Walter. An intraperitoneal infection was induced in each mouse with 0.2 ml of a 5% mucin suspension of the bacteria corresponding of approximately 1.4×10^6 E. coli cells and 1.3×10^6 Pseudomonas cells per mouse. Female NMRI mice were used, divided into groups of 10 animals. Two groups were untreated and the remaining groups were treated with different doses of the cephalosporins to be tested to determine the ED50 (dose at which 50% of the animals survived). The groups infected with E. coli were on the first day treated with the test compound three times ([…] post infectionem) and on the second day twice. The groups with the Pseudomonas infection were on the first day treated with the test compound six times (1, 3, 5, 7, 9 and 11 hours post infectionem), and on the following two days twice.
(§9) The observation time was in both cases 7 days.

E. coli ATCC 11775 = assay: In vivo test in mice against experimental E. coli infection; parameters: species or system Female NMRI mice; conditions: Escherichia coli, ATCC11775, sc, 168 h; subcutaneous; per dose; dose at which 50% of the animals survived; observation 7 days
Experimental: as §8, §9

SMILES	MIC [1]	MIC (St. aureus E 88)	MIC [2]	MIC (E. coli R+TEM)	MIC [3]	MIC [4]	MIC [5]	MIC [6]	MIC (Eb. cloaceae ATCC 13047)	MIC [7]	MIC [8]	MIC (Proteus rettgeri)	ED50 [9]	ED50 (E. coli ATCC 11775)
Cn1nnnc1SCC1=C(C(=O)O)N2C(=O)[C@@H](NC(=O)C(NC(=O)Nc3cnc(NC4CCC(O)CC4)nc3O)c3cccs3)[C@H]2SC1 (stereo partly drawn) [F]	2 µg/mL (≈ 2.79 µM)	8 µg/mL (≈ 11.1 µM)	2 µg/mL (≈ 2.79 µM)	16 µg/mL	2 µg/mL (≈ 2.79 µM)	16 µg/mL (≈ 22.3 µM)	16 µg/mL (≈ 22.3 µM)	0.5 µg/mL (≈ 0.697 µM)	4 µg/mL (≈ 5.57 µM)	1 µg/mL (≈ 1.39 µM)	0.5 µg/mL (≈ 0.697 µM)	2 µg/mL (≈ 2.79 µM)	–	–
CNS(=O)(=O)c1ccc(Nc2ncc(NC(=O)N[C@@H](C(=O)N[C@@H]3C(=O)N4C(C(=O)O)=C(CSc5nnnn5C)CS[C@H]34)c3ccc(O)cc3)c(O)n2)cc1 [K]	0.13 µg/mL (≈ 0.163 µM)	4 µg/mL (≈ 5.01 µM)	0.06 µg/mL (≈ 0.0751 µM)	2 µg/mL	0.13 µg/mL (≈ 0.163 µM)	4 µg/mL (≈ 5.01 µM)	2 µg/mL (≈ 2.5 µM)	< 0.03 µg/mL	0.5 µg/mL (≈ 0.626 µM)	0.5 µg/mL (≈ 0.626 µM)	0.06 µg/mL (≈ 0.0751 µM)	0.25 µg/mL (≈ 0.313 µM)	3.6 mg/kg	0.3 mg/kg
CCCNc1ncc(NC(=O)N[C@@H](C(=O)N[C@@H]2C(=O)N3C(C(=O)O)=C(CSc4nnnn4C)CS[C@H]23)c2ccc(O)cc2)c(O)n1 [B]	0.5 µg/mL (≈ 0.744 µM)	8 µg/mL (≈ 11.9 µM)	0.5 µg/mL (≈ 0.744 µM)	8 µg/mL	1 µg/mL (≈ 1.49 µM)	4 µg/mL (≈ 5.95 µM)	8 µg/mL (≈ 11.9 µM)	0.5 µg/mL (≈ 0.744 µM)	1 µg/mL (≈ 1.49 µM)	1 µg/mL (≈ 1.49 µM)	0.25 µg/mL (≈ 0.372 µM)	1 µg/mL (≈ 1.49 µM)	12.4 mg/kg	1.1 mg/kg
CNS(=O)(=O)c1ccc(Nc2ncc(NC(=O)N[C@@H](C(=O)N[C@@H]3C(=O)N4C(C(=O)O)=C(CSc5nnc(C)s5)CS[C@H]34)c3ccc(O)cc3)c(O)n2)cc1 [N]	0.5 µg/mL (≈ 0.614 µM)	8 µg/mL (≈ 9.82 µM)	0.25 µg/mL (≈ 0.307 µM)	4 µg/mL	0.25 µg/mL (≈ 0.307 µM)	4 µg/mL (≈ 4.91 µM)	4 µg/mL (≈ 4.91 µM)	0.25 µg/mL (≈ 0.307 µM)	1 µg/mL (≈ 1.23 µM)	1 µg/mL (≈ 1.23 µM)	0.5 µg/mL (≈ 0.614 µM)	0.5 µg/mL (≈ 0.614 µM)	–	–
Cn1nnnc1SCC1=C(C(=O)O)N2C(=O)[C@@H](NC(=O)[C@H](NC(=O)Nc3cnc(NC4CCC(O)CC4)nc3O)c3ccc(O)cc3)[C@H]2SC1 (stereo partly drawn) [C]	0.5 µg/mL (≈ 0.687 µM)	8 µg/mL (≈ 11 µM)	0.5 µg/mL (≈ 0.687 µM)	8 µg/mL	0.5 µg/mL (≈ 0.687 µM)	4 µg/mL (≈ 5.5 µM)	4 µg/mL (≈ 5.5 µM)	0.13 µg/mL (≈ 0.179 µM)	0.5 µg/mL (≈ 0.687 µM)	1 µg/mL (≈ 1.37 µM)	0.13 µg/mL (≈ 0.179 µM)	1 µg/mL (≈ 1.37 µM)	4.2 mg/kg	0.4 mg/kg
CNc1nnc(SCC2=C(C(=O)O)N3C(=O)[C@@H](NC(=O)[C@H](NC(=O)Nc4cnc(Nc5ccc(S(=O)(=O)NC)cc5)nc4O)c4ccc(O)cc4)[C@H]3SC2)s1 [J]	0.25 µg/mL (≈ 0.301 µM)	16 µg/mL (≈ 19.3 µM)	0.5 µg/mL (≈ 0.602 µM)	8 µg/mL	0.5 µg/mL (≈ 0.602 µM)	8 µg/mL (≈ 9.64 µM)	8 µg/mL (≈ 9.64 µM)	0.5 µg/mL (≈ 0.602 µM)	1 µg/mL (≈ 1.2 µM)	1 µg/mL (≈ 1.2 µM)	0.25 µg/mL (≈ 0.301 µM)	1 µg/mL (≈ 1.2 µM)	–	–
Cc1nnc(SCC2=C(C(=O)O)N3C(=O)[C@@H](NC(=O)Cn4cnnn4)[C@H]3SC2)s1 [Cephazolin, reference compound]	2 µg/mL (≈ 4.4 µM)	8 µg/mL (≈ 17.6 µM)	1 µg/mL (≈ 2.2 µM)	4 µg/mL	> 100 µg/mL	> 100 µg/mL	> 100 µg/mL	4 µg/mL (≈ 8.8 µM)	> 100 µg/mL	0.06 µg/mL (≈ 0.132 µM)	4 µg/mL (≈ 8.8 µM)	> 100 µg/mL	–	–

— patent publication US4316898A, “Cephalosporins” (Boehringer Ingelheim KG, priority 1979, dated 1982)
